Assays:
Assay type in all cases: in vivo
Nightshade = assay: Test C preemergence
[1] = system: lambsquarters (Chenopodium album); assay: Test C preemergence; conditions: for Plant response rating (0 to 100), Lambsquarters: Rate 250 g/ha, visual evaluation after 12 to 14 days
In short: (§1)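 Response scores (0 no effect to 100 complete control) came from visual comparison with untreated controls 12 to 14 days after treatment. Preemergence application was made to seeded soil; postemergence, to plants at the 1- to 4-leaf stage.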

[2] = system: yellow nutsedge (Cyperus esculentus); assay: Test C preemergence; conditions: for Plant response rating (0 to 100), Nutsedge: Rate 250 g/ha, visual evaluation after 12 to 14 days
In short: as §1

corn (Zea mays) [3] = assay: Test C preemergence; conditions: for Plant response rating (0 to 100), Corn: Rate 250 g/ha, visual evaluation after 12 to 14 days
In short: as §1

[4] = system: johnsongrass (Sorghum halepense); assay: Test C preemergence; conditions: for Plant response rating (0 to 100), Johnsongrass: Rate 250 g/ha, visual evaluation after 12 to 14 days
In short: as §1

Sunflower [5] = assay: Test C preemergence
[6] = system: morningglory (Ipomoea hederacea); assay: Test C preemergence; conditions: for Plant response rating (0 to 100), Morningglory: Rate 250 g/ha, visual evaluation after 12 to 14 days
In short: as §1

[7] = system: velvetleaf (Abutilon theophrasti); assay: Test C preemergence; conditions: for Plant response rating (0 to 100), Velvetleaf: Rate 250 g/ha, visual evaluation after 12 to 14 days
In short: as §1

[8] = system: goosegrass (Eleusine indica); assay: Test C preemergence; conditions: for Plant response rating (0 to 100), Goosegrass: Rate 250 g/ha, visual evaluation after 12 to 14 days
In short: as §1

[9] = system: morning glory (Ipomoea hederacea); assay: Test B postemergence; conditions: 13 to 15 days
In short: (§2)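 Pre: seeded pots sprayed, chemical in non-phytotoxic solvent/surfactant mix. Post: plants 2–18 cm, 1–4 leaf, same formulation. Greenhouse 13–15 d; visual % control vs untreated, 0–100 scale.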

[10] = system: Surinam grass (Brachiaria decumbens); assay: Test B postemergence; conditions: 13 to 15 days
In short: as §2

[11] = system: cocklebur (Xanthium strumarium); assay: Test B postemergence; conditions: 13 to 15 days
In short: as §2

[12] = system: crabgrass (Digitaria sanguinalis); assay: Test B postemergence; conditions: 13 to 15 days
In short: as §2

corn (Zea mays) [13] = assay: Test B postemergence; conditions: 13 to 15 days
In short: as §2

[14] = system: wheat (Triticum aestivum); assay: Test B postemergence; conditions: 13 to 15 days
In short: as §2

wild oat (Avena fatua) = assay: Test B postemergence; conditions: 13 to 15 days
In short: as §2

[15] = system: pigweed (Amaranthus retroflexus); assay: Test B postemergence; conditions: 13 to 15 days
In short: as §2

[16] = system: velvetleaf (Abutilon theophrasti); assay: Test B postemergence; conditions: 13 to 15 days
In short: as §2

[17] = system: barnyardgrass (Echinochloa crus-galli); assay: Test B postemergence; conditions: 13 to 15 days
In short: as §2

[18] = system: giant foxtail (Setaria faberii); assay: Test B postemergence; conditions: 13 to 15 days
In short: as §2

Sunflower [19] = assay: Test C preemergence; conditions: Rate 250 g/ha, visual evaluation after 12 to 14 days
[20] = Rate 62 g/ha, scale 0 to 100, 0 no effect, 100 complete control
[21] = Rate 125 g/ha, scale 0 to 100, 0 no effect, 100 complete control
[22] = Preemergence, Rate 500 g/ha, scale 0 to 100
[23] = preemergence, Rate 125 g/ha, scale 0 to 100, 0 no effect, 100 complete control
[24] = Rate 125 g/ha, scale 0 (no effect) to 100 (complete control)
[25] = Rate 500 g/ha, scale 0 to 100, 0 is no effect, 100 is complete control
[26] = preemergence, Rate 31 g/ha, scale 0 to 100

With `CCC(C)c1ccn(C2SCN(c3cccc(C(F)(F)F)c3)C2=O)n1` (stereo not drawn) [Compound 20] the “Plant response rating, Nightshade” value (Nightshade; [20]) was 30, the “Plant response rating, Nightshade” value (Nightshade; [21]) was 70 and the “Plant response rating, Nightshade” value (Nightshade; Rate 500 g/ha, scale 0 to 100) was 90. For the same compound, the “Plant response rating, Lambsquarters” value [1, 22] was 100, the “Plant response rating, Lambsquarters” value [1, 20] was 90 and the “Plant response rating (0 to 100), Lambsquarters” value ([1]; preemergence) was 100. For the same compound, the “Plant response rating, Lambsquarters” value [1, 23] was 100, the “Plant response rating, Nutsedge” value [2, 22] was 50 and the “Plant response rating, Nutsedge” value [2, 20] was 0. The “Plant response rating (0 to 100), Nutsedge” value ([2]; preemergence) was 50, the “Plant response rating, Nutsedge” value [2, 23] was 0 and the “Plant response rating, Corn” value (corn (Zea mays) [3]; [22]) was 30. For the same compound, the “Plant response rating, Corn” value (corn (Zea mays) [3]; [20]) was 0, the “Plant response rating (0 to 100), Corn” value (corn (Zea mays) [3]; preemergence) was 30 and the “Plant response rating, Corn” value (corn (Zea mays) [3]; [23]) was 30. For the same compound, the “Plant response rating, Johnsongrass” value [4, 22] was 100, the “Plant response rating, Johnsongrass” value [4, 20] was 0 and the “Plant response rating (0 to 100), Johnsongrass” value ([4]; preemergence) was 50. For the same compound, the “Plant response rating, Johnsongrass” value [4, 23] was 20, the “Plant response rating, Sunflower” value (Sunflower [5]; [20]) was 0 and the “Plant response rating, Sunflower” value (Sunflower [5]; Rate 500 g/ha, scale 0 to 100) was 70. For the same compound, the “Plant response rating, Morningglory” value [6, 22] was 40, the “Plant response rating, Morningglory” value [6, 20] was 0 and the “Plant response rating (0 to 100), Morningglory” value ([6]; preemergence) was 40. For the same compound, the “Plant response rating, Morningglory” value [6, 23] was 30, the “Plant response rating, Velvetleaf” value [7, 22] was 20 and the “Plant response rating, Velvetleaf” value [7, 20] was 0. For the same compound, the “Plant response rating (0 to 100), Velvetleaf” value ([7]; preemergence) was 20, the “Plant response rating, Velvetleaf” value [7, 23] was 0 and the “Plant response rating, Goosegrass” value [8, 22] was 100. The “Plant response rating, Goosegrass” value [8, 20] was 80, the “Plant response rating (0 to 100), Goosegrass” value ([8]; preemergence) was 100 and the “Plant response rating, Goosegrass” value [8, 23] was 100. For the same compound, the “Plant response rating, Morningglory” value [9, 24] was 60, the “Plant response rating, Morningglory” value [9, 25] was 60 and the “Plant response rating, Surinam grass” value [10, 24] was 0. For the same compound, the “Plant response rating, Surinam grass” value [10, 25] was 0, the “Plant response rating, Cocklebur” value [11, 24] was 80 and the “Plant response rating, Cocklebur” value [11, 25] was 90. The “Plant response rating, Crabgrass” value [12, 24] was 20, the “Plant response rating, Crabgrass” value [12, 25] was 80 and the “Plant response rating, Corn” value (corn (Zea mays) [13]; [24]) was 0. For the same compound, the “Plant response rating, Corn” value (corn (Zea mays) [13]; [25]) was 20, the “Plant response rating, Wheat” value [14, 24] was 0 and the “Plant response rating, Wheat” value [14, 25] was 0. For the same compound, the “Plant response rating, Wild Oat” value (wild oat (Avena fatua); [24]) was 0, the “Plant response rating, Wild Oat” value (wild oat (Avena fatua); [25]) was 0 and the “Plant response rating, Pigweed” value [15, 24] was 90. For the same compound, the “Plant response rating, Pigweed” value [15, 25] was 90, the “Plant response rating, Velvetleaf” value [16, 24] was 10 and the “Plant response rating, Velvetleaf” value [16, 25] was 20. For the same compound, the “Plant response rating, Barnyardgrass” value [17, 24] was 60, the “Plant response rating, Barnyardgrass” value [17, 25] was 100 and the “Plant response rating, Foxtail, Giant” value [18, 24] was 50. For the same compound, the “Plant response rating, Foxtail, Giant” value [18, 25] was 90 and the “Plant response rating (0 to 100), Sunflower” value (Sunflower [19]) was 60.

For `CC(C)c1ccn(C2OCN(c3cccc(C(F)(F)F)c3)C2=O)n1` (stereo not drawn) [Compound 27], the “Plant response rating, Nightshade” value (Nightshade; Rate 31 g/ha, scale 0 to 100) was 0, the “Plant response rating, Nightshade” value (Nightshade; [20]) was 0 and the “Plant response rating, Nightshade” value (Nightshade; [21]) was 0. The “Plant response rating, Lambsquarters” value [1, 20] was 100, the “Plant response rating, Lambsquarters” value [1, 26] was 100 and the “Plant response rating (0 to 100), Lambsquarters” value ([1]; preemergence) was 100. The “Plant response rating, Lambsquarters” value [1, 23] was 100, the “Plant response rating, Nutsedge” value [2, 20] was 60 and the “Plant response rating, Nutsedge” value [2, 26] was 30. The “Plant response rating (0 to 100), Nutsedge” value ([2]; preemergence) was 80, the “Plant response rating, Nutsedge” value [2, 23] was 60 and the “Plant response rating, Corn” value (corn (Zea mays) [3]; [20]) was 20. The “Plant response rating, Corn” value (corn (Zea mays) [3]; [26]) was 0, the “Plant response rating (0 to 100), Corn” value (corn (Zea mays) [3]; preemergence) was 30 and the “Plant response rating, Corn” value (corn (Zea mays) [3]; [23]) was 20. The “Plant response rating, Johnsongrass” value [4, 20] was 20, the “Plant response rating, Johnsongrass” value [4, 26] was 0 and the “Plant response rating (0 to 100), Johnsongrass” value ([4]; preemergence) was 50. The “Plant response rating, Johnsongrass” value [4, 23] was 50, the “Plant response rating, Sunflower” value (Sunflower [5]; [20]) was 20 and the “Plant response rating, Morningglory” value [6, 20] was 20. For the same compound, the “Plant response rating, Morningglory” value [6, 26] was 0, the “Plant response rating (0 to 100), Morningglory” value ([6]; preemergence) was 30 and the “Plant response rating, Morningglory” value [6, 23] was 20. The “Plant response rating, Velvetleaf” value [7, 20] was 0, the “Plant response rating, Velvetleaf” value [7, 26] was 0 and the “Plant response rating (0 to 100), Velvetleaf” value ([7]; preemergence) was 0. The “Plant response rating, Velvetleaf” value [7, 23] was 0, the “Plant response rating, Goosegrass” value [8, 20] was 90 and the “Plant response rating, Goosegrass” value [8, 26] was 40. For the same compound, the “Plant response rating (0 to 100), Goosegrass” value ([8]; preemergence) was 100, the “Plant response rating, Goosegrass” value [8, 23] was 100 and the “Plant response rating, Morningglory” value [9, 24] was 0. For the same compound, the “Plant response rating, Morningglory” value [9, 25] was 50, the “Plant response rating, Surinam grass” value [10, 24] was 0 and the “Plant response rating, Surinam grass” value [10, 25] was 20. The “Plant response rating, Cocklebur” value [11, 24] was 0, the “Plant response rating, Cocklebur” value [11, 25] was 30 and the “Plant response rating, Crabgrass” value [12, 24] was 20. For the same compound, the “Plant response rating, Crabgrass” value [12, 25] was 40, the “Plant response rating, Corn” value (corn (Zea mays) [13]; [24]) was 0 and the “Plant response rating, Corn” value (corn (Zea mays) [13]; [25]) was 10. For the same compound, the “Plant response rating, Wheat” value [14, 24] was 0, the “Plant response rating, Wheat” value [14, 25] was 0 and the “Plant response rating, Wild Oat” value (wild oat (Avena fatua); [24]) was 0. For the same compound, the “Plant response rating, Wild Oat” value (wild oat (Avena fatua); [25]) was 0, the “Plant response rating, Pigweed” value [15, 24] was 40 and the “Plant response rating, Pigweed” value [15, 25] was 60. The “Plant response rating, Velvetleaf” value [16, 24] was 0, the “Plant response rating, Velvetleaf” value [16, 25] was 0 and the “Plant response rating, Barnyardgrass” value [17, 24] was 20. For the same compound, the “Plant response rating, Barnyardgrass” value [17, 25] was 60, the “Plant response rating, Foxtail, Giant” value [18, 24] was 0 and the “Plant response rating, Foxtail, Giant” value [18, 25] was 30. For the same compound, the “Plant response rating (0 to 100), Sunflower” value (Sunflower [19]) was 20.
